According to PMC5085761 (International Journal of Molecular Sciences, 2016):

Legend:
Type in all cases: in vitro ADME
OAT1 = biological target: T1, OAT1 (Homo sapiens, UniProt Q4U2R8); assay: [14C]fluciclovine uptake by OAT1-expressing cells; conditions: OAT1 cells vs mock cells
T1 construct: host or cells: Flp-in-293
T1 sequence (Q4U2R8 1-563): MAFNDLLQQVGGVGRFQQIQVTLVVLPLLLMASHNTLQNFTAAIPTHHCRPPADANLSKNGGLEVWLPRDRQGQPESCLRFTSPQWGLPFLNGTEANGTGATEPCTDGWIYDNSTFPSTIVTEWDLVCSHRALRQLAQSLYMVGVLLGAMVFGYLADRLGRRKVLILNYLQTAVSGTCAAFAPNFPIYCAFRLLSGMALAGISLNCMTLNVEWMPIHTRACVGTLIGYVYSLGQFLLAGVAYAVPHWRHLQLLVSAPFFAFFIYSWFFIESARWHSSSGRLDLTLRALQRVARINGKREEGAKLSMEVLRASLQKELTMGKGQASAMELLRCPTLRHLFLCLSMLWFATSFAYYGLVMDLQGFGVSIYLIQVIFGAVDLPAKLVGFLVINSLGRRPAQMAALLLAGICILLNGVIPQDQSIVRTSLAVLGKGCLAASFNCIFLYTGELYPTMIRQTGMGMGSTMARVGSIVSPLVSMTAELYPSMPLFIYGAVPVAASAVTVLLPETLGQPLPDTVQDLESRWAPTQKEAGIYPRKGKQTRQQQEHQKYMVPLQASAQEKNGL
Experimental: For the SLC transporter experiments, Mock Flp-in-293 cells (Flp/mock), OAT1-expressing Flp-in-293 cells (Flp/OAT1), mock HEK293 cells (HEK/mock), and OATP1B3-expressing HEK293 cells (HEK/OATP1B3) were obtained from Kanazawa University (Ishikawa, Japan). Briefly, Flp-in-293 and HEK293 cells were transfected with the appropriate plasmid DNA and selected using antibiotics (hygromycin or G-418). All cell lines were cultured in DMEM (Life Technologies Japan) supplemented with 10% (v/v) fetal bovine serum (American Type Culture Collection) and antibiotics (100 U/mL penicillin and 100 μg/mL streptomycin (Life Technologies Japan) for mock cells, 0.2 mg/mL hygromycin for Flp/OAT1 cells, and 1.2 mg/mL G-418 (Roche Diagnostics K.K., Tokyo, Japan) for HEK/OATP1B3 cells) at 37 °C under an atmosphere containing 5% CO2. […]
The experiments were performed as described previously, with minor modifications. […] The cells were lysed in 0.3 mL of 0.1N NaOH at room temperature, after which the radioactivity of each aliquot was measured as described above. The protein concentration of the cell lysate was determined with a VersaMax microplate reader (Molecular Devices Japan K.K., Osaka, Japan) or SpectraMax i3x (Molecular Devices Japan K.K.; only for OATP1B1) using a BCA Protein Assay Kit (Thermo Fisher Scientific, Kanagawa, Japan). Tracer uptake was expressed as pmol/mg protein. […]

human P-gp = biological target: T2, human P-gp (Homo sapiens, UniProt P08183); assay: Inhibition of tracer uptake in P-gp-expressing vesicles; conditions: tracer [3H]digoxin 1 µM
T2 construct: purchased GenoMembrane Co., Ltd. (Kanagawa, Japan); host or cells: Sf9
T2 sequence (P08183 whole entry): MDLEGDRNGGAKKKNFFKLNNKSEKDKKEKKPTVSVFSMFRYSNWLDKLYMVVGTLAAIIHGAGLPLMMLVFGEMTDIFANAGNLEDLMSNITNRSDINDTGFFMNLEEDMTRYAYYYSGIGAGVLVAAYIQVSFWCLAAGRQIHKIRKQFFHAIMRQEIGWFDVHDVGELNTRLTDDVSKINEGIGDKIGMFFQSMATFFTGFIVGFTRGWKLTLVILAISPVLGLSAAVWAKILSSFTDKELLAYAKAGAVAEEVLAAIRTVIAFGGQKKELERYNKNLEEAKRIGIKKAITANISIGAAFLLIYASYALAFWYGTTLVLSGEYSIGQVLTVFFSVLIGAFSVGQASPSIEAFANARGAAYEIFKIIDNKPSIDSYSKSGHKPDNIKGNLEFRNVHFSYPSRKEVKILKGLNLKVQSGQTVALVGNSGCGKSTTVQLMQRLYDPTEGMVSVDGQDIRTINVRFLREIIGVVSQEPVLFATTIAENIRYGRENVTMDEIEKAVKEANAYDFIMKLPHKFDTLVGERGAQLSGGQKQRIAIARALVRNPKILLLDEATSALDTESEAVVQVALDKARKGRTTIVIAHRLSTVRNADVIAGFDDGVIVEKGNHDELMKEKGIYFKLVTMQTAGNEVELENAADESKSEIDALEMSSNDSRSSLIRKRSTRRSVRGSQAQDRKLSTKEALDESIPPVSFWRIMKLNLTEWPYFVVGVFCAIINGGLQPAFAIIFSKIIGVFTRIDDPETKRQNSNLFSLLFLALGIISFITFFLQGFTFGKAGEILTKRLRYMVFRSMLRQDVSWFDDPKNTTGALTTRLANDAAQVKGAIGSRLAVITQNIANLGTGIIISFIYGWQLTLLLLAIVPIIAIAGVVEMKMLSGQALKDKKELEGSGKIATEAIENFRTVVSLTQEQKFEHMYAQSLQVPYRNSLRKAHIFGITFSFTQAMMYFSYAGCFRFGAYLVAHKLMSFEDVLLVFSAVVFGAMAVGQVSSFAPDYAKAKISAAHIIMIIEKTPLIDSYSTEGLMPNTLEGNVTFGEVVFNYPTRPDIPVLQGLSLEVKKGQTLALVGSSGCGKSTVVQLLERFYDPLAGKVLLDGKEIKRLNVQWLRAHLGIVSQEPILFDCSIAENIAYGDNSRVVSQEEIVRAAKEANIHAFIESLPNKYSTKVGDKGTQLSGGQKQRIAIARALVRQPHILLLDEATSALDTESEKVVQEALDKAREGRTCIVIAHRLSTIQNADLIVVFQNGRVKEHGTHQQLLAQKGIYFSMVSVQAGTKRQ
Experimental: (§1) For ABC transporters, experimental kits containing Sf9-derived vesicles with high expression levels of human P-gp, MRP4, BCRP, and each ABC transporter (including buffer, ATP/AMP solution, and glutathione) were purchased from GenoMembrane Co., Ltd. (Kanagawa, Japan).
(§2) Vesicular transport assays were carried out according to the manufacturer’s protocol. […] The reaction was started by suspending 50 μg of vesicles (10 μL) in 40 μL of the reaction buffer. After incubation for an appropriate period of time, the reaction was stopped by the addition of ice-cold stop buffer (40 mM MOPS-Tris and 70 mM KCl; pH 7.0), after which the solution was filtered through a 0.45 μm HA filter (Millipore Corp., Billerica, MA, USA) using suction, and was washed twice in 5 mL of ice-cold stop buffer. The radioactivity of the filter was measured with a Tri-Carb 2910TR liquid scintillation counter (PerkinElmer) using Ultima Gold (PerkinElmer). The amount of tracer uptake was normalized to the membrane protein amount described in the product information sheets.

human BCRP = biological target: T3, human BCRP (Homo sapiens, UniProt Q9UNQ0); assay: Inhibition of tracer uptake in BCRP-expressing vesicles; conditions: ES 0.1 µM, 100 µM–12.5 mM fluciclovine
T3 construct: purchased GenoMembrane Co., Ltd. (Kanagawa, Japan); host or cells: Sf9
T3 sequence (Q9UNQ0 1-655): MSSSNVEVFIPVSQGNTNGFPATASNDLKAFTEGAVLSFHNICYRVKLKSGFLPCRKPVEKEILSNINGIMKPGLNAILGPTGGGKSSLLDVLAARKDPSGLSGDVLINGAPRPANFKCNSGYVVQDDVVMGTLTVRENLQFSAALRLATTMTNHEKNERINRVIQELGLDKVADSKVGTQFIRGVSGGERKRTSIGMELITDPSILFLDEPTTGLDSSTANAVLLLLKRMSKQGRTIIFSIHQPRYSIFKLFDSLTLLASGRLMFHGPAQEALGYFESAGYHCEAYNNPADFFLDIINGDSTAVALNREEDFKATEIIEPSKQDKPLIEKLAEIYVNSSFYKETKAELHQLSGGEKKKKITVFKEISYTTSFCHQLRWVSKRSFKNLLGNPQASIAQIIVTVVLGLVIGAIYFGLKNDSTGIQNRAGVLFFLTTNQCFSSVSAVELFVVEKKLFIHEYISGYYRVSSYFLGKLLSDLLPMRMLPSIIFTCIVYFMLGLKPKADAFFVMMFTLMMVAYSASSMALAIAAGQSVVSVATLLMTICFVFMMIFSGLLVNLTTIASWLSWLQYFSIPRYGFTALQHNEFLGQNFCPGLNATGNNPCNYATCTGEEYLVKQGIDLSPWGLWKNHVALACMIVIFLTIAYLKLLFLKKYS
Experimental: as §1, §2

IC50 (human P-gp) [µM] | inhibition of transport of BCRP-specific substrate [3H]estrone-3-sulfate (human BCRP) | SMILES | drug transporter-mediated uptake (OAT1)
– | – | N[14C]1(C(=O)O)CC(F)C1 (stereo not drawn) [[^14C]fluciclovine, trans-1-amino-3-fluoro[1-^14C]cyclobutanecarboxylic acid] | negligible
2950 ± 2560 | does not inhibit | N[C@]1(C(=O)O)C[C@@H](F)C1 [fluciclovine] | –
